Where two headings read alike, the source gives them in different places. Some results are limits rather than exact numbers.

Data set [1] has as its system Ub-PCNA levels in the nucleus of ES2 cells (USP1 activity). Briefly: ES2 Ub-PCNA immunofluorescence (IF) assay. It counts as cell-based. Particulars: Homo sapiens, ES-2; ES2 cells, 3 hours, Ub-PCNA immunofluorescence; read-out: USP1 IC50 (Ub-PCNA). In a few lines:
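Cells plated overnight, then compound-treated for 3 h at 37° C (0.3% DMSO final), methanol-fixed and stained with anti-Ub-PCNA plus DAPI. Per-nucleus Ub-PCNA intensity imaged; cells above the 95% cutoff of untreated wells counted as positive, and percent positive cells used to derive AC50.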

The target of a further data set is USP1/UAF1 enzyme (Homo sapiens, UniProt O94782). Briefly: USP1/UAF1 deubiquitination assay (ubiquitin-rhodamine 110 substrate). It is filed as biochemical. The conditions noted are these: read-out: USP1 IC50 (Ub-Rho). In a few lines:
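0.05 nM USP1/UAF1 was preincubated 10 min with compounds (dose response from 10 μM) in 50 mM Tris-HCl pH 7.8, 0.5 mM EDTA, 0.01% BSA, 1 mM DTT, 0.01% Tween-20. 150 nM ubiquitin-rhodamine 110 started the reaction, read kinetically 30 min at Ex480/Em540; IC50 by four-parameter fit versus no-enzyme and DMSO controls.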

Data set [2] can be described thus: ADME solubility determination in PBS at pH 2.0 and pH 7.4. It counts as physicochemical. The conditions noted are these: phosphate buffered saline, 25 °C, thermodynamic from solid. Summed up: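 Dried 10 mM DMSO stock residues taken up in PBS pH 7.4 or pH 2.0, shaken 24 h at 25° C. After centrifugation, supernatant quantified by LC-MS/MS against a standard of known concentration, with a dilution factor applied.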

Data set [3] is described as follows: Liver microsomal metabolic stability, rat liver microsomes (RLM). The conditions noted are these: rat, liver microsomes, t1/2 (min) in RLM, 1 μM compound, 1 mg/mL microsomes, NADPH.
Protocol: Samples were prepared by adding 222.5 μL of a master solution (100 mM phosphate buffer and 1 mg/mL liver microsomes (HLM or RLM)) and 25 μL of a 10 mM NADPH solution to incubation plates, which were then warmed for 10 min. Each compound was separately dissolved in DMSO to prepare 10 mM stock solutions, which were then diluted to 100 μM with acetonitrile. A reaction was started by adding 2.5 μL of the 100 μM solution of each compound to separate incubation plates such that the final concentration of for each compound in each plate was 1 μM.
25 μL aliquots of each sample were taken at 0.5, 5, 10, 15, 20 and 30 minutes, and the reaction was stopped by adding 5 volumes of cold acetonitrile with IS (100 nM alprazolam, 200 nM caffeine and 100 nM tolbutamide). The samples were then centrifuged at 3,220 G for 30 minutes, and 100 μL of the supernatant fluid was mixed with 100 μL of ultra-pure H2O.
The samples were then analyzed by LC-MS/MS. Peak areas were determined from extracted ion chromatograms. Slope values (k) were determined by linear regression of the natural logarithm of the remaining percentage of the compound vs. incubation time curve. The in vitro half-life (in vitro t1/2) was determined from the slope value using the following equation:
A short description of data set [4]: Liver microsomal metabolic stability, human liver microsomes (HLM). Particulars: human, liver microsomes.
[5] abbreviates: pH 2, aqueous buffer, PBS pH 2.0, 25° C., read-out: Solubility at pH 2.0.
The mark [6] stands for this setting: pH 7.4, aqueous buffer, PBS pH 7.4, 25° C., read-out: Solubility at pH 7.4.

Sequence of USP1/UAF1 enzyme (O94782 whole entry): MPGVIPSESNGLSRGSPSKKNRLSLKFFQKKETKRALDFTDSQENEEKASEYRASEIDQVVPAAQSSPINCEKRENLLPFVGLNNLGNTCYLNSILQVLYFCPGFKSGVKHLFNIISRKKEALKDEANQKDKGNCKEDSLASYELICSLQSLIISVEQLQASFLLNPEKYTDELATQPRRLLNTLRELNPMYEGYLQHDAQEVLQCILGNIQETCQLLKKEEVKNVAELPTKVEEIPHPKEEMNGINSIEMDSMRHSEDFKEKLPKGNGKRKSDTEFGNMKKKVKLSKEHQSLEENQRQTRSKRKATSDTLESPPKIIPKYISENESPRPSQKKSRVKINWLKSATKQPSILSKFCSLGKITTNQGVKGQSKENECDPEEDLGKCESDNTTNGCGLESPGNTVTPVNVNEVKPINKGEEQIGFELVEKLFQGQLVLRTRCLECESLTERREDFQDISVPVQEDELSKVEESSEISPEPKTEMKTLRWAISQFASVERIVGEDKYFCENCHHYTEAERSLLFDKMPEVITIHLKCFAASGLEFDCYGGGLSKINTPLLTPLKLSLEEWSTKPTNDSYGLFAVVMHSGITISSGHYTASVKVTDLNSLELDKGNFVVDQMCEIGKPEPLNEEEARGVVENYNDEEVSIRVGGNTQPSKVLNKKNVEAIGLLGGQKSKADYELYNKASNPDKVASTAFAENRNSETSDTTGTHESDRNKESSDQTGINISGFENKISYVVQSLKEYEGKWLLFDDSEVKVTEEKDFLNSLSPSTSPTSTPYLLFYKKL
Sequence of USP1/UAF1 enzyme (Q8TAF3 whole entry partner): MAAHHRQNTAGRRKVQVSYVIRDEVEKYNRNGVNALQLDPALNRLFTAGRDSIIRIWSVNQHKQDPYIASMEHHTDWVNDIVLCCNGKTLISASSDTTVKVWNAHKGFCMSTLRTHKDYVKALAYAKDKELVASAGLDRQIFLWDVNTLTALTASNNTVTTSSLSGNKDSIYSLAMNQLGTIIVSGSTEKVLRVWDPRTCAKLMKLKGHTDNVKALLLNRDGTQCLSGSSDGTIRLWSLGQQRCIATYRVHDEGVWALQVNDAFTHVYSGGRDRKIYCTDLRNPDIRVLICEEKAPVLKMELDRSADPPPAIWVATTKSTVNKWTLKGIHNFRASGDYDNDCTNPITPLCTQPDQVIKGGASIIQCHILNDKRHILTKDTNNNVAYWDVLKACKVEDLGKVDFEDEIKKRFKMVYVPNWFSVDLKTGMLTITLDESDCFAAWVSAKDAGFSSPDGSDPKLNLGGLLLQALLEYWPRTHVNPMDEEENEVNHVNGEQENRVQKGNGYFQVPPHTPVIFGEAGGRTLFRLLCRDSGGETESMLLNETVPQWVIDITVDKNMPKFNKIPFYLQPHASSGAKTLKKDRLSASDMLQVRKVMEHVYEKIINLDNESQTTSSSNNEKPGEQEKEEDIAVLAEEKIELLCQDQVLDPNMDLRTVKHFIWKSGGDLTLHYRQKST

Take `CC(C)n1cc(C(F)(F)F)nc1-c1ccc([C@H](C)N2C(=O)CCn3nc(-c4c(Cl)cnn4C(C)C)nc32)cc1` [Example 177]: the 50% inhibitory concentration (IC50) (in data set [1]; on USP1/UAF1 enzyme) was less than 0.1 µM throughout. Further, the solubility at 24 h in data set [2] (setting [5]) and in data set [2] (setting [6]) was less than 10 µM throughout. Further, the values for the half-life at 1 μM in data set [3] and in data set [4] were more than 25 min and less than 25 min, respectively.

As to `CC(C)n1cc(C(F)(F)F)nc1-c1ccc([C@@H](C)N2C(=O)CCn3nc(-c4c(Cl)cnn4C(C)C)nc32)cc1` [Example 178], the IC50 (in data set [1]; on USP1/UAF1 enzyme) was less than 0.1 µM throughout. Also, the solubility (commonly how much of the substance goes into solution per volume) at 24 h was not below 10 µM in data set [2] (setting [5]) and less than 10 µM in data set [2] (setting [6]). The half-life at 1 μM in data set [3] and in data set [4] was less than 25 min throughout.

For the compound `CCn1cc(C(F)(F)F)nc1-c1ccc([C@@H](C)N2C(=O)CCn3nc(-c4c(Cl)cnn4C(C)C)nc32)cc1OC` [Example 180], the figures for the concentration for half-maximal inhibition (IC50) (in data set [1]; on USP1/UAF1 enzyme) were 0.1 to 0.5 µM and less than 0.1 µM, respectively. Besides, the solubility at 24 h in data set [2] (setting [5]) and in data set [2] (setting [6]) was less than 10 µM in each case. For the same compound, the half-life at 1 μM in data set [3] and in data set [4] was less than 25 min in each case.

With `CCn1cc(C(F)(F)F)nc1-c1ccc([C@H](C)N2C(=O)CCn3nc(-c4c(Cl)cnn4C(C)C)nc32)cc1F` [Example 181], the 50% inhibitory concentration (IC50) (in data set [1]; at USP1/UAF1 enzyme) was less than 0.1 µM throughout. Also, the solubility at 24 h in data set [2] (setting [5]) and in data set [2] (setting [6]) was less than 10 µM in each case. The half-life (commonly the time needed for the level to fall by half in the phase considered) at 1 μM in data set [3] was more than 25 min; in data set [4], less than 25 min.

Take `CCn1cc(C(F)(F)F)nc1-c1ccc([C@@H](C)N2C(=O)CCn3nc(-c4c(Cl)cnn4C(C)C)nc32)cc1F` [Example 182]: the IC50 (in data set [1]; at USP1/UAF1 enzyme) was less than 0.1 µM each time. In addition, the solubility at 24 h in data set [2] (setting [5]) and in data set [2] (setting [6]) was less than 10 µM each time. Also, the half-life at 1 μM in data set [3] and in data set [4] was less than 25 min each time.

Turning to `CCn1cc(C(F)(F)F)nc1-c1ccc([C@H](C)N2C(=O)CCn3nc(-c4c(OC)ncnc4C4CC4)nc32)cc1` [Example 183], the IC50 (in data set [1]; at USP1/UAF1 enzyme) was less than 0.1 µM in each case. Besides, the solubility at 24 h in data set [2] (setting [5]) and in data set [2] (setting [6]) was not below 10 µM throughout. The half-life at 1 μM in data set [3] was more than 25 min; in data set [4] it was less than 25 min.

As to `CCn1cc(C(F)(F)F)nc1-c1ccc([C@@H](C)N2C(=O)CCn3nc(-c4c(OC)ncnc4C4CC4)nc32)cc1` [Example 184], the IC50 (in data set [1]; at USP1/UAF1 enzyme) was less than 0.1 µM in each case. The solubility at 24 h in data set [2] (setting [5]) and in data set [2] (setting [6]) was not below 10 µM each time. The half-life at 1 μM in data set [3] was less than 25 min; in data set [4], more than 25 min.

Take `CCn1cc(C(F)(F)F)nc1-c1ccc(CN2C(=O)CCn3nc(-c4c(Cl)cnn4C(C)C)nc32)cn1` [Example 186]: the IC50 – broadly, the midpoint of a concentration-inhibition curve – was 0.1 to 0.5 µM in data set [1] and less than 0.1 µM at USP1/UAF1 enzyme. Besides, the solubility at 24 h in data set [2] (setting [5]) and in data set [2] (setting [6]) was less than 10 µM in each case. Moreover, the half-life at 1 μM in data set [3] and in data set [4] was more than 25 min in each case.

Take `COc1ncnc(C2CC2)c1-c1nc2n(n1)CCC(=O)N2[C@@H](C)c1ccc(-c2nc(C(F)(F)F)cn2C(C)C)cc1` [Example 188]: the IC50 in data set [1] is less than 0.1 µM; on USP1/UAF1 enzyme, 0.1 to 0.5 µM. Also, the solubility at 24 h in data set [2] (setting [5]) and in data set [2] (setting [6]) was not below 10 µM throughout. Moreover, the half-life at 1 μM in data set [3] and in data set [4] was more than 25 min in each case.

For the compound `COc1ncnc(C2CC2)c1-c1nc2n(n1)CCC(=O)N2[C@H](C)c1ccc(-c2nc(C(F)(F)F)cn2C(C)C)cc1` [Example 189], the IC50 (in data set [1]; on USP1/UAF1 enzyme) was less than 0.1 µM in each case. The solubility at 24 h in data set [2] (setting [5]) and in data set [2] (setting [6]) was not below 10 µM throughout. The half-life at 1 μM in data set [3] and in data set [4] was more than 25 min in each case.

Consider `CCn1cc(C(F)(F)F)nc1-c1ccc([C@H](C)N2C(=O)CCn3nc(-c4c(OC)ncnc4C4CC4)nc32)cc1F` [Example 190], for which the IC50 (in data set [1]; at USP1/UAF1 enzyme) was less than 0.1 µM throughout. In addition, the solubility at 24 h in data set [2] (setting [5]) and in data set [2] (setting [6]) was not below 10 µM each time. The half-life at 1 μM in data set [3] and in data set [4] was more than 25 min throughout.

Consider `CCn1cc(C(F)(F)F)nc1-c1ccc([C@@H](C)N2C(=O)CCn3nc(-c4c(OC)ncnc4C4CC4)nc32)cc1F` [Example 191], for which the IC50 (in data set [1]; on USP1/UAF1 enzyme) was less than 0.1 µM in each case. Also, the solubility at 24 h in data set [2] (setting [5]) and in data set [2] (setting [6]) was less than 10 µM each time. In addition, the half-life at 1 μM in data set [3] is less than 25 min; in data set [4], more than 25 min.

Turning to `CCn1cc(C(F)(F)F)nc1-c1ccc([C@H](C)N2C(=O)CCn3nc(-c4c(Cl)cnn4C(C)C)nc32)cc1` [Example 193], the IC50 (in data set [1]; on USP1/UAF1 enzyme) was less than 0.1 µM throughout. For the same compound, the solubility at 24 h in data set [2] (setting [5]) and in data set [2] (setting [6]) was less than 10 µM in each case. In addition, the half-life at 1 μM in data set [3] and in data set [4] was less than 25 min in each case.

As for `CCn1cc(C(F)(F)F)nc1-c1ccc([C@@H](C)N2C(=O)CCn3nc(-c4c(Cl)cnn4C(C)C)nc32)cc1` [Example 194], the concentration for half-maximal inhibition (IC50) (in data set [1]; on USP1/UAF1 enzyme) was less than 0.1 µM throughout. Further, the solubility at 24 h in data set [2] (setting [5]) and in data set [2] (setting [6]) was less than 10 µM each time. Also, the half-life at 1 μM in data set [3] and in data set [4] was less than 25 min throughout.

Regarding `COc1ncnc(C2CC2)c1-c1nc2n(n1)CCC(=O)N2Cc1ccc(-c2nc(C(F)(F)F)cn2C(C)CF)cc1` (stereo not drawn) [Example 195], the IC50 in data set [1] is less than 0.1 µM; at USP1/UAF1 enzyme it was 0.1 to 0.5 µM. In addition, the solubility at 24 h in data set [2] (setting [5]) and in data set [2] (setting [6]) was not below 10 µM each time. For the same compound, the half-life at 1 μM in data set [3] and in data set [4] was more than 25 min each time.

As to `COc1ncnc(C2CC2)c1-c1nc2n(n1)CCC(=O)N2[C@@H](C)c1ccc(-c2nc(C(F)(F)F)cn2C)c(F)c1` [Example 196], the IC50 in data set [1] was less than 0.1 µM; at USP1/UAF1 enzyme, 0.1 to 0.5 µM. For the same compound, the solubility at 24 h in data set [2] (setting [5]) and in data set [2] (setting [6]) was not below 10 µM each time. The half-life at 1 μM is more than 25 min in data set [3] and less than 25 min in data set [4].

Turning to `COc1ncnc(C2CC2)c1-c1nc2n(n1)CCC(=O)N2[C@H](C)c1ccc(-c2nc(C(F)(F)F)cn2C)c(F)c1` [Example 197], the IC50 (in data set [1]; on USP1/UAF1 enzyme) was less than 0.1 µM each time. Moreover, the solubility at 24 h in data set [2] (setting [5]) and in data set [2] (setting [6]) was not below 10 µM each time. Further, the half-life at 1 μM in data set [3] and in data set [4] was more than 25 min throughout.

In the case of `COc1ncnc(C2CC2)c1-c1nc2n(n1)CCC(=O)N2[C@@H](C)c1ccc(-c2nc(C(F)(F)F)cn2C2CC2)cc1` [Example 200], the results for the IC50 (in data set [1]; at USP1/UAF1 enzyme) were less than 0.1 µM and 0.1 to 0.5 µM, respectively. The solubility at 24 h in data set [2] (setting [5]) and in data set [2] (setting [6]) was not below 10 µM each time. Moreover, the half-life at 1 μM in data set [3] and in data set [4] was more than 25 min in each case.

Consider `COc1ncnc(C2CC2)c1-c1nc2n(n1)CCC(=O)N2[C@H](C)c1ccc(-c2nc(C(F)(F)F)cn2C2CC2)cc1` [Example 201], for which the IC50 (in data set [1]; on USP1/UAF1 enzyme) was less than 0.1 µM throughout. For the same compound, the solubility at 24 h in data set [2] (setting [5]) and in data set [2] (setting [6]) was not below 10 µM in each case. Moreover, the half-life at 1 μM in data set [3] and in data set [4] was more than 25 min throughout.

Take `COc1ncnc(C2CC2)c1-c1nc2n(n1)CCC(=O)N2[C@@H](C)c1ccc(-n2nc(C(F)(F)F)cc2C)c(F)c1` [Example 203]: the IC50 (in data set [1]; at USP1/UAF1 enzyme) was 0.1 to 0.5 µM throughout. Besides, the solubility at 24 h in data set [2] (setting [5]) and in data set [2] (setting [6]) was not below 10 µM throughout. Also, the half-life at 1 μM in data set [3] and in data set [4] was more than 25 min throughout.

Take `COc1ncnc(C2CC2)c1-c1nc2n(n1)CCC(=O)N2[C@H](C)c1ccc(-n2nc(C(F)(F)F)cc2C)c(F)c1` [Example 204]: the IC50 (in data set [1]; at USP1/UAF1 enzyme) was less than 0.1 µM each time. In addition, the solubility at 24 h in data set [2] (setting [5]) and in data set [2] (setting [6]) was not below 10 µM in each case. Further, the half-life at 1 μM in data set [3] and in data set [4] was more than 25 min in each case.

In the case of `COc1ncnc(C2CC2)c1-c1nc2n(n1)CCC(=O)N2[C@H](C)c1ccc(-c2nc(C(F)(F)F)c(Br)n2C)cc1` [Example 206], the IC50 (in data set [1]; at USP1/UAF1 enzyme) was less than 0.1 µM each time. Further, the solubility at 24 h in data set [2] (setting [5]) is not below 10 µM; in data set [2] (setting [6]), less than 10 µM. Moreover, the half-life at 1 μM in data set [3] and in data set [4] was more than 25 min throughout.

Regarding `COc1ncnc(C2CC2)c1-c1nc2n(n1)CCC(=O)N2Cc1ccc(-c2nc(C(F)(F)F)cn2C(C)C)c(F)c1OC` [Example 210], the IC50 (in data set [1]; on USP1/UAF1 enzyme) was less than 0.1 µM throughout. In addition, the solubility at 24 h in data set [2] (setting [5]) and in data set [2] (setting [6]) was not below 10 µM each time. Moreover, the half-life at 1 μM in data set [3] and in data set [4] was more than 25 min each time.

These data come from patent publication US20230219965A1 (KSQ Therapeutics, Inc., priority 2020, published 2023).
